This test has as its target T1, hTAS1R2/hTAS1R3(r570–858) (Homo sapiens, UniProt Q7RTX0+Q8TE23, A579V/A607F/A718V/A733V/A735I/A808T/C675Y/C757R/D670N/F730L/G674S/G822E/H593Y/H712Q/L571S/L639M/L789Y/L798I/L800F/L816V/M689T/M713V/M818L/P605S/P630S/P826Q/Q627R/Q820L/R594W/R632S/R671W/R752Q/R790Q/R813K/R819W/S577C/S629R/S640A/S673C/T697A/T724M/T739V/T774I/V583T/V612I/V617F/V693A/V701M/V720E/V788A/V802A).
T1 construct: hTAS1R3(r570–858) consists of the N-terminal extracellular domain of hTAS1R3 and the TMD of rTAS1R3; TMD of rTAS1R3 (r570–858); expressed in transfected cells
Put plainly: Calcium assay, chimeric TAS1R3 co-expressed with hTAS1R2. The test is classed as cell-based, rat. From the text:
Chimeric Gα proteins, such as Gα16Gust44, Gα16Gi3 or Gα15i2, are widely used in the functional expression of TAS1R receptors ([Backes et al., 2015]; [Suess et al., 2015]; [Toda et al., 2021], [Toda et al., 2013], [Toda et al., 2018]; [Zhang et al., 2008]). Chimeric Gα15i2 (([Toda et al., 2013]), Supplementary data) was generated by replacing the last five residues of the C-terminal tail of rat Gα15i2 (EINLL) (UniProt number G3V6N8; https://www.uniprot.org/uniprot/) with the counterpart sequence from human GNAI2 (DCGLF) (UniProt number P04899-1) and cloning into the pcDNA3.1/Hygro vector (Invitrogen, Thermo Fisher Scientific, Illkirch, France) between the HindIII and NotI restriction sites, resulting in the plasmid pcDNA3.1-Gα15i2. Chimeric Gα16Gust44 construct have already been reported ([Raliou et al., 2011]). Briefly, Gα16Gust44 was generated by replacing the C-terminal of Gα16 with the C-terminal 44 residues of gustducin. As previously described, hTAS1R1 was amplified from human fungiform papillae cDNA and cloned and inserted into pcDNA3 (Invitrogen), generating pcDNA3-TAS1R1-WT (wild-type) ([Raliou et al., 2011]). […]

T1 sequence (Q8TE23 20-839, stated change not applied): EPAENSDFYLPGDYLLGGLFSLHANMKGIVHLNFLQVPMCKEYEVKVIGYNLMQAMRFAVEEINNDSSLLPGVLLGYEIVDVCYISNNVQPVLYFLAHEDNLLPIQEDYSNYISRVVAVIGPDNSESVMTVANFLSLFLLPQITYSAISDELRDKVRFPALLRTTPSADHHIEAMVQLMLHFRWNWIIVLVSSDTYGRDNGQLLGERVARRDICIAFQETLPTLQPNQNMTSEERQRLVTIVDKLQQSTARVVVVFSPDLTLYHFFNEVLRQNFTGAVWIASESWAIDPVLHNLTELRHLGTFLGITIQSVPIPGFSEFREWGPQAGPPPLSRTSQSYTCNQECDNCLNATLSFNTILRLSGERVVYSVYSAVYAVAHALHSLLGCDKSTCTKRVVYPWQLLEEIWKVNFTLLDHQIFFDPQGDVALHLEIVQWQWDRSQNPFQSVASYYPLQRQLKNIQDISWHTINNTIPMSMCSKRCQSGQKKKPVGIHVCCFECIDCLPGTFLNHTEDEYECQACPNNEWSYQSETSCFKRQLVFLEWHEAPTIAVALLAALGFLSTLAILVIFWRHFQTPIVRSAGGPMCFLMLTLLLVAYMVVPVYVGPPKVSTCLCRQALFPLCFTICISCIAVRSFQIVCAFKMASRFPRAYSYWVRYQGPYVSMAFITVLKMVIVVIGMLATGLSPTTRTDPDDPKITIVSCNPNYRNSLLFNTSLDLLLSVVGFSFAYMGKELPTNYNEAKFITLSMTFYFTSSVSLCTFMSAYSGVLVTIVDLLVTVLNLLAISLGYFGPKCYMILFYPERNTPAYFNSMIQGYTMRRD
T1 sequence (Q7RTX0 with tags, fused parts or gaps with the stated changes limits assumed): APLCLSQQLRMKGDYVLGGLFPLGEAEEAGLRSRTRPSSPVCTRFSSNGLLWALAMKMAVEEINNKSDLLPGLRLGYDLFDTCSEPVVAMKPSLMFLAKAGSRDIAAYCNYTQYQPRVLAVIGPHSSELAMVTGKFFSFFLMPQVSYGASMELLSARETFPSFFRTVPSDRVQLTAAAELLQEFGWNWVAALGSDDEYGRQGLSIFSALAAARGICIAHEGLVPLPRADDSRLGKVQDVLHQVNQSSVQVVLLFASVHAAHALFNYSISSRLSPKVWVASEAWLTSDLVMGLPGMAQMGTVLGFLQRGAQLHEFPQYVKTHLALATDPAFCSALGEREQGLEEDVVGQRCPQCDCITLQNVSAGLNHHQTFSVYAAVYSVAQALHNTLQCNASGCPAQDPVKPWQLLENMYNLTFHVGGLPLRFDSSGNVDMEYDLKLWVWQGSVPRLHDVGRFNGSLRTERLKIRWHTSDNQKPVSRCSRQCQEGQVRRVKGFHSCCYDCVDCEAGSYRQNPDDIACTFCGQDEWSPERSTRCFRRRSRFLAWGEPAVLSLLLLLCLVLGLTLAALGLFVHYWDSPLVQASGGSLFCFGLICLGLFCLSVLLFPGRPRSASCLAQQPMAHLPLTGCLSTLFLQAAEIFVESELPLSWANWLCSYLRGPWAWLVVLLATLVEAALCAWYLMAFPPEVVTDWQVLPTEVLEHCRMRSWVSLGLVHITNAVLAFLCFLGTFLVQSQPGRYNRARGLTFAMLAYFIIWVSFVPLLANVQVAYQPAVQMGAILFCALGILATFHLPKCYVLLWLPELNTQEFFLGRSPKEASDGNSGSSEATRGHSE

Regarding `N[C@@H](CCC(=O)N[C@@H](CS)C(=O)NCC(=O)O)C(=O)O` [GSH, γ-L-glutamyl-L-cysteinyl-glycine], the “effect of GSH on the response to sucralose” value is on record as “unaffected”.

With `OC[C@H]1O[C@H](O[C@]2(CCl)O[C@H](CCl)[C@@H](O)[C@@H]2O)[C@H](O)[C@@H](O)[C@H]1Cl` [sucralose, reference compound], the EC50 (sucralose alone, Fig. 3B) was determined as 67 ± 1 µM.
